Like-named read-outs stand apart in the source and are kept apart here.
Experiments:
Format in all cases: biochemical
[1] = molecular target: T1, COX-1 (Ovis aries, UniProt P05979); test: Fluorimetric COX-1 inhibition screening kit (BioVision); details: for COX-1 inhibition at the initial concentrations: 10^−3 M and 10^−4 M; for inhibition at 10 µM: 10^−5 M; for inhibition at 1 µM: 10^−6 M; for inhibition at 0.1 µM: 10^−7 M; for inhibition at 0.01 µM: 10^−8 M; for inhibition at 0.001 µM: 10^−9 M
T1 construct: purchased BioVision (Milpitas, CA, USA) K548-100
Protocol: (§1) Inhibitory potency of the compounds on COX-1 and COX-2 enzymes was determined by using fluorimetric COX-1 and COX-2 inhibition screening kits from BioVision (Milpitas, CA, USA). The experimental protocol as described in the guides provided by the supplier was followed. All of the pipetting were performed using a robotized system to increase speed, accuracy and precision. Fluorescence intensities of the samples were kinetically measured at 25 °C for 5–10 min by monitoring emissions at 587 nm after excitation at 535 nm. Two appropriate points (T1 and T2) in the linear range of the plot were chosen and the corresponding fluorescence values (RFU1 and RFU2) were obtained. The slope for all samples including Enzyme Control (EC) was calculated by dividing the net ΔRFU (RFU2 − RFU1) values by the time ΔT (T2 − T1). Percentage of relative inhibition was calculated by using the following equation:% Relative inhibition = (Slope of EC − Slope of S/Slope of EC) × 100 where S is the term representing the tested compound [51, 52]. […] The IC50 values were calculated using the plots of the enzyme activity against concentrations by applying regression analyses.

[2] = molecular target: T2, COX-2 (Homo sapiens, UniProt P35354); test: Fluorimetric COX-2 inhibition screening kit (BioVision); details: for COX-2 inhibition at the initial concentrations: 10^−3 M and 10^−4 M; for inhibition at 10 µM: 10^−5 M; for inhibition at 1 µM: 10^−6 M, read-out: COX 2 Inhibition %; for inhibition at 0.1 µM: 10^−7 M; for inhibition at 0.01 µM: 10^−8 M; for inhibition at 0.001 µM: 10^−9 M
T2 construct: purchased BioVision (Milpitas, CA, USA) K547-100
T2 sequence (P35354 18-604): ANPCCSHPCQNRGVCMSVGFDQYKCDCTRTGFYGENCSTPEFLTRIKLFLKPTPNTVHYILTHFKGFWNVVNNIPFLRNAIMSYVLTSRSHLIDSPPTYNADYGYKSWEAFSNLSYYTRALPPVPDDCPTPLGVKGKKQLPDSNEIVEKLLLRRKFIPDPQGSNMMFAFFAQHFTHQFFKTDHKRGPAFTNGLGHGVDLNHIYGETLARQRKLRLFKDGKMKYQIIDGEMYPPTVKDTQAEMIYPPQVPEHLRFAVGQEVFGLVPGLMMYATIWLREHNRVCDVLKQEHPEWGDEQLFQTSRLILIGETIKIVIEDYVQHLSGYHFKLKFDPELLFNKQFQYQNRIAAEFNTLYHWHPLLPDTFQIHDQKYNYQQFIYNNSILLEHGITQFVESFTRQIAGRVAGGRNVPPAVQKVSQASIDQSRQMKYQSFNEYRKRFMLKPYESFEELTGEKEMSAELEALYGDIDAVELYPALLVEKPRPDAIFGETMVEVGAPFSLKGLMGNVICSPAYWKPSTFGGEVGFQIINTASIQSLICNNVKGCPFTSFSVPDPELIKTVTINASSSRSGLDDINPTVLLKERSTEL
Protocol: as §1

[3] = molecular target: AChE (Homo sapiens, UniProt P22303)
Protocol: Inhibition potency of the test compounds against AChE was determined using Ellman’s method. Enzyme solutions were prepared in gelatin solution (1%, w/v), at the concentration of 2.5 units/mL. […] AChE solution (20 µL/well) and test solution (20 µL/well) were added to phosphate buffer solution (140 µL/well, pH 8.0 ± 0.1), and incubated at 25 °C for 5 min. […] The production of the yellow anion was recorded by multimode microplate reader for 10 min at 412 nm. As a control, an identical solution of the enzyme without the inhibitor was processed. The control and the inhibitor readings were corrected with blank-readings. All processes were assayed in four independent determinations.

[4] = molecular target: T3, human recombinant MAO-A (Homo sapiens, UniProt P21397); test: MAO inhibition assay (kynuramine, fluorimetric)
T3 sequence (P21397 1-527): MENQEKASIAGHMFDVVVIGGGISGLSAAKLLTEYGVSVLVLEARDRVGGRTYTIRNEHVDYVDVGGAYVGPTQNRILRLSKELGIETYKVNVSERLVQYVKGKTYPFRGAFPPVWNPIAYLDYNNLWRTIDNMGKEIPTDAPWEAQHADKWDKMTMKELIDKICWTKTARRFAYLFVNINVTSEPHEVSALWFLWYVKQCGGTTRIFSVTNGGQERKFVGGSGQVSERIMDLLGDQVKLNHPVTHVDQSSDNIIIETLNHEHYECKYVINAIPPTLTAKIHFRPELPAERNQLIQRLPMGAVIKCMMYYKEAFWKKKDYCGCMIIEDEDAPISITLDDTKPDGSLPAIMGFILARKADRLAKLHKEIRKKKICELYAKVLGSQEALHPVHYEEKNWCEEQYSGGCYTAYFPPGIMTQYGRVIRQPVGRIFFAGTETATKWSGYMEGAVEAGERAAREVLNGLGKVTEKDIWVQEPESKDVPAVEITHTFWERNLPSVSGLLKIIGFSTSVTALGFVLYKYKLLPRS
Protocol: (§2) Enzyme activity assays were performed according to the procedure reported by Matsumoto et al. with slight modifications. In order to prevent the destructive effect of light on MAO enzymes, the assays were performed in 96-well black plates. Phosphate buffer solution (0.1 M, pH = 7.4) was used for preparation of stock solutions (5 mg/mL) of both human recombinant MAO-A and MAO-B enzymes. […] The addition of the test compound solution was followed by addition of either MAO-A or MAO-B enzyme (50 μL/well) solutions. After 10 min of incubation at 37 °C, kynuramine (50 μL/well) was added and enzyme-substrate reaction was initiated. The plate was incubated for 20 min at 37 °C and then reaction was terminated by addition of 2 N NaOH (75 μL/well). The fluorimetric reads from the top was performed at 310 nm excitation and 380 nm emission wavelengths.

[5] = molecular target: T4, human recombinant MAO-B (Homo sapiens, UniProt P27338); test: MAO inhibition assay (kynuramine, fluorimetric)
T4 sequence (P27338 1-520): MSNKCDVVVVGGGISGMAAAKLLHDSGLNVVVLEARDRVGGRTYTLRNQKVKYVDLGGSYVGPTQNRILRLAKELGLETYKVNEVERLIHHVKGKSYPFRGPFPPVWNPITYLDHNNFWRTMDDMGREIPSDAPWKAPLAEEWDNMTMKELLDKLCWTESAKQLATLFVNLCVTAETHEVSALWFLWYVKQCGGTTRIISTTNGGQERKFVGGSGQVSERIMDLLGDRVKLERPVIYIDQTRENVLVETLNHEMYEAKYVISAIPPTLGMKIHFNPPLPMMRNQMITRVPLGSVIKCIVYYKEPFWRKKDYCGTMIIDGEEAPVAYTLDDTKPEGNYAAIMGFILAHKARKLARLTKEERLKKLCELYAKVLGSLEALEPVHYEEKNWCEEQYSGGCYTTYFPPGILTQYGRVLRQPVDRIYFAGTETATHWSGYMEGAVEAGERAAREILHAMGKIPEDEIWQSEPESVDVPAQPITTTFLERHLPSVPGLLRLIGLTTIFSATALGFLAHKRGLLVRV
Protocol: as §2

Chain of AChE (P22303 32-614): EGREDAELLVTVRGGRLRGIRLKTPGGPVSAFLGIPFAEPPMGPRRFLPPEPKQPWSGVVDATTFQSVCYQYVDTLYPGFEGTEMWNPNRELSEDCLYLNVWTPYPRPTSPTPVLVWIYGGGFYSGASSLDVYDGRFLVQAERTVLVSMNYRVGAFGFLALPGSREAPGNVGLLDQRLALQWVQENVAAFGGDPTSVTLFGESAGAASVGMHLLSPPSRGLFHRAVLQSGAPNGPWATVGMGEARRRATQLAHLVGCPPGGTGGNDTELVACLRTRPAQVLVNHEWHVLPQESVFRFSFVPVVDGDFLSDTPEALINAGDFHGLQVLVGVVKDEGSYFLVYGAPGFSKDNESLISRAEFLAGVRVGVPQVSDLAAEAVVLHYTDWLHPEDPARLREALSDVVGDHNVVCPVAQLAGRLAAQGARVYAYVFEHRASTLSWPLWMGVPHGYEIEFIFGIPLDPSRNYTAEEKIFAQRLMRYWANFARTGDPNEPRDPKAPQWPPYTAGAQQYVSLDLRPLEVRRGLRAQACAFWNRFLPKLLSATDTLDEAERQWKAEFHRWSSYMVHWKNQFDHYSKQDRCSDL
T1 sequence (P05979 25-600): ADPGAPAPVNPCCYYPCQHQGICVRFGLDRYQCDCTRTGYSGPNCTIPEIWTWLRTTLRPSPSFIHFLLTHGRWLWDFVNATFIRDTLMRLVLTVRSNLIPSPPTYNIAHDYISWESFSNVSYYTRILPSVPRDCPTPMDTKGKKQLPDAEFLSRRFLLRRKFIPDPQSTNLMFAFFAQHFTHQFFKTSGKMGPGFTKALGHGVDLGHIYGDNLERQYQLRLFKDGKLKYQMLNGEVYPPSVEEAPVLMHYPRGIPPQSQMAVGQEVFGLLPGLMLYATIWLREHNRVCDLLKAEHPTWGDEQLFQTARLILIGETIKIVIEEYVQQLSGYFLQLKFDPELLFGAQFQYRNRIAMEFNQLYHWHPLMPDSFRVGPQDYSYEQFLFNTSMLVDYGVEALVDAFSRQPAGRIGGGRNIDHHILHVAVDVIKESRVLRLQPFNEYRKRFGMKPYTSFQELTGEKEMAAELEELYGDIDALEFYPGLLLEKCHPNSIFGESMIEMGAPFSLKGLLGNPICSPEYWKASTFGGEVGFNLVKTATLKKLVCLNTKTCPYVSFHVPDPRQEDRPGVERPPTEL

Compound	COX-1 Inhibition (%) ([1]; 10^-3 M)	COX-1 Inhibition (%) ([1]; 10^-4 M)	COX-2 Inhibition (%) ([2]; 10^-3 M)	COX-2 Inhibition (%) ([2]; 10^-4 M)	AChE Inhibition (%) ([3]; 10^-3 M)	AChE Inhibition (%) ([3]; 10^-4 M)	MAO-A Inhibition (%) ([4]; 10^-3 M)	MAO-A Inhibition (%) ([4]; 10^-4 M)	MAO-B Inhibition (%) ([5]; 10^-3 M)	MAO-B Inhibition (%) ([5]; 10^-4 M)	IC50 [1]	COX-1 inhibition at the initial concentrations [1]	inhibition at 10 µM [1]	inhibition at 1 µM [1]	inhibition at 0.1 µM [1]	inhibition at 0.01 µM [1]	inhibition at 0.001 µM [1]	IC50 [2]	COX-2 inhibition at the initial concentrations [2]	inhibition at 10 µM [2]	other results
Fc1ccc(-c2nc3ccccc3n2CCN2CCOCC2)cc1 [Compound 2d, 2-(4-Fluorophenyl)-1-[2-(morpholin-4-yl)ethyl]-1H-benzimidazole]	31.87%	29.36%	21.08%	28.46%	16.20%	16.20%	39.79%	33.11%	45.29%	38.96%											
Brc1ccc(-c2nc3ccccc3n2CCN2CCOCC2)cc1 [Compound 2g, 2-(4-Bromophenyl)-1-[2-(morpholin-4-yl)ethyl]-1H-benzimidazole]	29.47%	21.74%	16.30%	19.03%	13.04%	13.04%	30.85%	22.29%	38.63%	30.87%											
FC(F)(F)c1ccc(-c2nc3ccccc3n2CCN2CCOCC2)cc1 [Compound 2l, 2-(4-Trifluoromethylphenyl)-1-[2-(morpholin-4-yl)ethyl]-1H-benzimidazole]	36.87%	33.46%	21.00%	34.62%	33.88%	33.88%	38.51%	30.16%	47.66%	38.09%											
CN(C)c1ccc(-c2nc3ccccc3n2CCN2CCOCC2)cc1 [Compound 2i, 2-(4-Dimethylaminophenyl)-1-[2-(morpholin-4-yl)ethyl]-1H-benzimidazole]	30.08%	22.62%	18.47%	25.76%	7.54%	7.54%	26.91%	19.20%	22.17%	14.43%											
c1ccc(COc2ccc(-c3nc4ccccc4n3CCN3CCOCC3)cc2)cc1 [Compound 2f, 2-(4-Benzyloxyphenyl)-1-[2-(morpholin-4-yl)ethyl]-1H-benzimidazole]	75.37%	79.08%	61.23%	60.20%	15.75%	15.75%	32.14%	20.65%	39.32%	31.14%	43.2 µM	more than 50%	45.4 ± 0.99%	42.1 ± 0.87%	34.2 ± 0.76%	32.7 ± 0.78%	29.9 ± 0.68%	44.9 µM	more than 50%	47 ± 1.13%	inhibition at 1 µM [2]: 40.2 ± 1.24%; inhibition at 0.1 µM [2]: 35.6 ± 0.91%; inhibition at 0.01 µM [2]: 31.5 ± 0.84%; inhibition at 0.001 µM [2]: 28.7 ± 0.63%
CCN(CC)c1ccc(-c2nc3ccccc3n2CCN2CCOCC2)cc1 [Compound 2h, 2-(4-Diethylaminophenyl)-1-[2-(morpholin-4-yl)ethyl]-1H-benzimidazole]	75.21%	78.21%	56.20%	57.08%	10.49%	10.49%	36.71%	23.16%	45.58%	36.16%	43 µM	more than 50%	46.3 ± 1.09%	40.9 ± 0.99%	35.6 ± 0.81%	30.8 ± 0.93%	24.2 ± 0.72%	51.2 µM	more than 50%	47.5 ± 1.08%	inhibition at 1 µM [2]: 42.6 ± 1.16%; inhibition at 0.1 µM [2]: 31.8 ± 0.99%; inhibition at 0.01 µM [2]: 28.4 ± 0.82%; inhibition at 0.001 µM [2]: 23 ± 0.68%
Cc1ccc(-c2nc3ccccc3n2CCN2CCOCC2)cc1 [Compound 2a, 2-(4-Methylphenyl)-1-[2-(morpholin-4-yl)ethyl]-1H-benzimidazole]	75.08%	71.23%	58.28%	56.23%	21.80%	21.80%	24.29%	19.15%	25.27%	16.63%	56.1 µM	more than 50%	47.4 ± 1.08%	40.1 ± 0.92%	35.7 ± 0.97%	30.5 ± 0.83%	28.8 ± 0.79%	58.7 µM	more than 50%	43.7 ± 1.07%	inhibition at 1 µM [2]: 40.3 ± 1.1%; inhibition at 0.1 µM [2]: 38.3 ± 0.92%; inhibition at 0.01 µM [2]: 36.2 ± 0.87%; inhibition at 0.001 µM [2]: 32.4 ± 0.91%

Reference: article PMC6152416, “Pharmacological and Toxicological Screening of Novel Benzimidazole-Morpholine Derivatives as Dual-Acting Inhibitors” (Molecules : A Journal of Synthetic Chemistry and Natural …, 2017)
